The source of these data is patent US9040528B2, “Chemical compounds 542” (AstraZeneca AB, priority 2008, dated 2015).

The first experiment has as its target Escherichia coli DNA gyrase A/B tetramer (Escherichia coli (strain K12), UniProt P0AES4+P0AES6). As to the kind of experiment: DNA gyrase supercoiling activity fluorescence polarisation assay. The class given is biochemical.
Settings: not given
An outline of the steps:
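Supercoiling reactions quenched with 40 nM 5′-BODIPY-FL triplex-forming oligonucleotide probe in pH 3.5 NaCl/sodium acetate buffer; after 60 min, fluorescence anisotropy read (ex 485/em 535 nm). IC50 by nonlinear regression, normalised to 0.8% DMSO (100% activity) and 5 μM ciprofloxacin (0% activity).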
(Polarisation of emitted light reports the rotation of a fluorescent probe.)
For orientation: IC50 means the point on the concentration scale where inhibition reaches its midpoint. `Cc1noc2c(F)c3c(cc12)CC1(C(=O)NC(=O)NC1=O)[C@H]1[C@H](C)C[C@H](C)CN31` (relative stereo) [Example 77, (2S,4R,4aR)-rel-11-fluoro-2,4,8-trimethyl-1,2,3,4,4a,6-hexahydro-1′H-spiro[isoxazolo[4,5-g]pyrido[1,2-a]quinoline-5,5′-pyrimidine]-2′,4′,6′(3′H)-trione]: 300 nM corresponded to half-maximal inhibition (IC50).

Staying with this experiment, now noted: 5 nM enzyme, relaxed plasmid, 0.3 mM ATP, ambient temperature; read-out: E. coli DNA gyrase supercoiling IC50.
As for `C[C@@H]1CN2c3c(cc4c(-n5cc(Cl)cn5)noc4c3F)CC3(C(=O)NC(=O)NC3=O)[C@H]2[C@H](C)O1` (relative stereo) [Example 61, (2R,4S,4aS)-rel-8-(4-chloro-1H-pyrazol-1-yl)-11-fluoro-2,4-dimethyl-1,2,4,4a-tetrahydro-2′H,6H-spiro[1,4-oxazino[4,3-a][1,2]oxazolo[4,5-g]quinoline-5,5′-pyrimidine]-2′,4′,6′(1′H,3′H)-trione], the half-inhibitory concentration (IC50) came out at 9300 nM.
With `CSc1noc2c(F)c3c(cc12)CC1(C(=O)NC(=O)NC1=O)[C@H]1[C@H](C)O[C@H](C)CN31` (relative stereo) [Example 62, (2R,4S,4aS)-rel-11-fluoro-2,4-dimethyl-8-(methylsulfanyl)-1,2,4,4a-tetrahydro-2′H,6H-spiro[1,4-oxazino[4,3-a][1,2]oxazolo[4,5-g]quinoline-5,5′-pyrimidine]-2′,4′,6′(1′H,3′H)-trione], the concentration for half-maximal inhibition (IC50) was 900 nM.
Regarding `Cc1cc(C)n(-c2noc3c(F)c4c(cc23)CC2(C(=O)NC(=O)NC2=O)[C@H]2[C@H](C)O[C@H](C)CN42)n1` (relative stereo) [Example 63, (2R,4S,4aS)-rel-8-(3,5-dimethyl-1H-pyrazol-1-yl)-11-fluoro-2,4-dimethyl-1,2,4,4a-tetrahydro-2′H,6H-spiro[1,4-oxazino[4,3-a][1,2]oxazolo[4,5-g]quinoline-5,5′-pyrimidine]-2′,4′,6′(1′H,3′H)-trione], the half-inhibitory concentration (IC50) came to 2700 nM.
The same measure, in the same setting: the figure for `C[C@@H]1CN2c3c(cc4c(-c5cn[nH]c5)noc4c3F)CC3(C(=O)NC(=O)NC3=O)[C@H]2[C@H](C)O1` (relative stereo) [Example 64, (2R,4S,4aS)-rel-11-fluoro-2,4-dimethyl-8-(1H-pyrazol-4-yl)-1,2,4,4a-tetrahydro-2′H,6H-spiro[1,4-oxazino[4,3-a][1,2]oxazolo[4,5-g]quinoline-5,5′-pyrimidine]-2′,4′,6′(1′H,3′H)-trione] is 800 nM; for `Cc1nc(-c2noc3c(F)c4c(cc23)CC2(C(=O)NC(=O)NC2=O)[C@H]2[C@H](C)O[C@H](C)CN42)co1` (relative stereo) [Example 65, (2R,4S,4aS)-rel-11-fluoro-2,4-dimethyl-8-(2-methyl-1,3-oxazol-4-yl)-1,2,4,4a-tetrahydro-2′H,6H-spiro[1,4-oxazino[4,3-a][1,2]oxazolo[4,5-g]quinoline-5,5′-pyrimidine]-2′,4′,6′(1′H,3′H)-trione] it is 1100 nM; for `Cc1cc(-c2noc3c(F)c4c(cc23)CC2(C(=O)NC(=O)NC2=O)[C@H]2[C@H](C)O[C@H](C)CN42)no1` (relative stereo) [Example 66, (2R,4S,4aS)-rel-11-fluoro-2,4-dimethyl-8-(5-methyl-1,2-oxazol-3-yl)-1,2,4,4a-tetrahydro-2′H,6H-spiro[1,4-oxazino[4,3-a][1,2]oxazolo[4,5-g]quinoline-5,5′-pyrimidine]-2′,4′,6′(1′H,3′H)-trione] it is 400 nM.
Regarding `Cc1noc(C)c1-c1noc2c(F)c3c(cc12)CC1(C(=O)NC(=O)NC1=O)[C@H]1[C@H](C)O[C@H](C)CN31` (relative stereo) [Example 67, (2R,4S,4aS)-rel-8-(3,5-dimethyl-1,2-oxazol-4-yl)-11-fluoro-2,4-dimethyl-1,2,4,4a-tetrahydro-2′H,6H-spiro[1,4-oxazino[4,3-a][1,2]oxazolo[4,5-g]quinoline-5,5′-pyrimidine]-2′,4′,6′(1′H,3′H)-trione], the IC50 turned out to be 3200 nM.
For the molecule `C[C@@H]1CN2c3c(cc4c(-c5nccn5C)noc4c3F)CC3(C(=O)NC(=O)NC3=O)[C@@H]2[C@H](C)O1` (relative stereo) [Example 68, (2R,4S,4aR)-rel-11-fluoro-2,4-dimethyl-8-(1-methyl-1H-imidazol-2-yl)-1,2,4,4a-tetrahydro-2′H,6H-spiro[1,4-oxazino[4,3-a][1,2]oxazolo[4,5-g]quinoline-5,5′-pyrimidine]-2′,4′,6′(1′H,3′H)-trione], the IC50 turned out to be 700 nM.
`C[C@@H]1CN2c3c(cc4c(-c5cn(C)cn5)noc4c3F)CC3(C(=O)NC(=O)NC3=O)[C@H]2[C@H](C)O1` (relative stereo) [Example 69, (2R,4S,4aS)-rel-11-fluoro-2,4-dimethyl-8-(1-methyl-1H-imidazol-4-yl)-1,2,4,4a-tetrahydro-2′H,6H-spiro[1,4-oxazino[4,3-a][1,2]oxazolo[4,5-g]quinoline-5,5′-pyrimidine]-2′,4′,6′(1′H,3′H)-trione]: the IC50 was 17000 nM.
Still for that read-out and setting: the result for `C[C@@H]1CN2c3c(cc4c(-c5cncn5C)noc4c3F)CC3(C(=O)NC(=O)NC3=O)[C@H]2[C@H](C)O1` (relative stereo) [Example 70, (2R,4S,4aS)-rel-11-fluoro-2,4-dimethyl-8-(1-methyl-1H-imidazol-5-yl)-1,2,4,4a-tetrahydro-2′H,6H-spiro[1,4-oxazino[4,3-a][1,2]oxazolo[4,5-g]quinoline-5,5′-pyrimidine]-2′,4′,6′(1′H,3′H)-trione] reads 500 nM; that for `Cc1ncsc1-c1noc2c(F)c3c(cc12)CC1(C(=O)NC(=O)NC1=O)[C@@H]1[C@@H](C)O[C@@H](C)CN31` (relative stereo) [Example 71, (2R,4S,4aS)-rel-11-fluoro-2,4-dimethyl-8-(4-methyl-1,3-thiazol-5-yl)-1,2,4,4a-tetrahydro-2′H,6H-spiro[1,4-oxazino[4,3-a][1,2]oxazolo[4,5-g]quinoline-5,5′-pyrimidine]-2′,4′,6′(1′H,3′H)-trione], 900 nM.
The same measure, in the same setting: the figure for `C[C@H]1CN2c3c(cc4c(-c5cccnn5)noc4c3F)CC3(C(=O)NC(=O)NC3=O)[C@@H]2[C@@H](C)O1` (relative stereo) [Example 73, (2R,4S,4aS)-rel-11-fluoro-2,4-dimethyl-8-(pyridazin-3-yl)-1,2,4,4a-tetrahydro-2′H,6H-spiro[1,4-oxazino[4,3-a][1,2]oxazolo[4,5-g]quinoline-5,5′-pyrimidine]-2′,4′,6′(1′H,3′H)-trione] is 500 nM.
Same read-out and setting: the figure for `Cc1nsc2c(F)c3c(cc12)CC1(C(=O)NC(=O)NC1=O)[C@H]1[C@H](C)O[C@H](C)CN31` (relative stereo) [Example 75, (2R,4S,4aS)-rel-11-fluoro-2,4,8-trimethyl-1,2,4,4a-tetrahydro-2′H,6H-spiro[1,4-oxazino[4,3-a][1,2]thiazolo[4,5-g]quinoline-5,5′-pyrimidine]-2′,4′,6′(1′H,3′H)-trione] is 200 nM.
Consider `C[C@@H]1CN2c3c(cc4c(-c5nccnc5Cl)noc4c3F)CC3(C(=O)NC(=O)NC3=O)[C@H]2[C@H](C)O1` (relative stereo) [Example 78, (2R,4S,4aS)-rel-8-(3-chloropyrazin-2-yl)-11-fluoro-2,4-dimethyl-2,4,4a,6-tetrahydro-1H,1′H-spiro[isoxazolo[4,5-g][1,4]oxazino[4,3-a]quinoline-5,5′-pyrimidine]-2′,4′,6′(3′H)-trione], for which the 50% inhibitory concentration (IC50) is 800 nM.
On the same count and under the same terms, the figure for `C[C@@H]1CN2c3c(cc4c(-c5cncc(Cl)n5)noc4c3F)CC3(C(=O)NC(=O)NC3=O)[C@H]2[C@H](C)O1` (relative stereo) [Example 79, (2R,4S,4aS)-rel-8-(6-chloropyrazin-2-yl)-11-fluoro-2,4-dimethyl-2,4,4a,6-tetrahydro-1H,1′H-spiro[isoxazolo[4,5-g][1,4]oxazino[4,3-a]quinoline-5,5′-pyrimidine]-2′,4′,6′(3′H)-trione] is 800 nM; for `CSc1cnc(-c2noc3c(F)c4c(cc23)CC2(C(=O)NC(=O)NC2=O)[C@H]2[C@H](C)O[C@H](C)CN42)cn1` (relative stereo) [Example 80, (2R,4S,4aS)-rel-11-fluoro-2,4-dimethyl-8-(5-(methylthio)pyrazin-2-yl)-2,4,4a,6-tetrahydro-1H,1′H-spiro[isoxazolo[4,5-g][1,4]oxazino[4,3-a]quinoline-5,5′-pyrimidine]-2′,4′,6′(3′H)-trione] it is 1700 nM.
With `C[C@@H]1CN2c3c(cc4c(Cn5cncn5)noc4c3F)CC3(C(=O)NC(=O)NC3=O)[C@H]2[C@H](C)O1` (relative stereo) [Example 81, (2R,4S,4aS)-rel-8-((1H-1,2,4-triazol-1-yl)methyl)-11-fluoro-2,4-dimethyl-2,4,4a,6-tetrahydro-1H,1′H-spiro[isoxazolo[4,5-g][1,4]oxazino[4,3-a]quinoline-5,5′-pyrimidine]-2′,4′,6′(3′H)-trione], the half-maximal inhibitory concentration (IC50) worked out at 3000 nM.
Same read-out and setting: the figure for `C[C@@H]1CN2c3c(cc4c(-c5ccncc5)noc4c3F)CC3(C(=O)NC(=O)NC3=O)[C@H]2[C@H](C)O1` (relative stereo) [Example 82, (2R,4S,4aS)-rel-11-fluoro-2,4-dimethyl-8-(pyridin-4-yl)-2,4,4a,6-tetrahydro-1H,1′H-spiro[isoxazolo[4,5-g][1,4]oxazino[4,3-a]quinoline-5,5′-pyrimidine]-2′,4′,6′(3′H)-trione] is 200 nM; for `C[C@@H]1CN2c3c(cc4c(-c5scnc5C(=O)N5CCOCC5)noc4c3F)CC3(C(=O)NC(=O)NC3=O)[C@H]2[C@H](C)O1` (relative stereo) [Example 85, (2R,4S,4aS)-rel-11-fluoro-2,4-dimethyl-8-[4-(morpholin-4-ylcarbonyl)-1,3-thiazol-5-yl]-1,2,4,4a-tetrahydro-2′H,6H-spiro[1,4-oxazino[4,3-a][1,2]oxazolo[4,5-g]quinoline-5,5′-pyrimidine]-2′,4′,6′(1′H,3′H)-trione] it is 17000 nM.
